Earlier results on 5 compounds are cited in patent publication US20260115111A1, “METHOD FOR IMPROVING THE TACTILE SENSATION OF DYED KERATINOUS MATERIAL, ESPECIALLY HUMAN HAIR” (Henkel AG & Co. KGaA, priority 2019, published 2026).

SMILES strings stand for the structures.

The conditions of the data set: 25° C.
For `O=C([O-])C1=NN(c2ccc(S(=O)(=O)[O-])cc2)C(=O)C1N=Nc1ccc(S(=O)(=O)[O-])cc1.[Na+].[Na+].[Na+]` (centres unmarked) [Acid Yellow 23, trisodium salt of 4,5-dihydro-5-oxo-1-(4-sulfophenyl)-4-((4-sulfophenyl)azo)-1H-pyrazole-3-carboxylic acid], the “solubility in water” value is given as “highly soluble”.

With `O=C([O-])c1c(Cl)c(Cl)c(Cl)c(Cl)c1-c1c2c(Br)cc(=O)c(Br)c-2oc2c(Br)c(O)cc(Br)c12.O=C([O-])c1c(Cl)c(Cl)c(Cl)c(Cl)c1-c1c2c(Br)cc(=O)c(Br)c-2oc2c(Br)c(O)cc(Br)c12.[Na+].[Na+]` [Acid Red 92, disodium salt of 3,4,5,6-tetrachloro-2-(1,4,5,8-tetrabromo-6-hydroxy-3-oxoxanthen-9-yl)benzoic acid], the solubility in water result is reported as “greater than 10 g/L”.

In the case of `Nc1cc(S(=O)(=O)[O-])cc2cc(S(=O)(=O)[O-])c(N=Nc3ccccc3)c(O)c12.[Na+].[Na+]` [Acid Red 33, diantrium salt of 5-amino-4-hydroxy-3-(phenylazo)-naphthalene-2,7-disulphonate], the solubility in water is 2.5 g/L.

With `CCN(Cc1cccc(S(=O)(=O)[O-])c1)c1ccc(C(=C2C=CC(=[N+](CC)Cc3cccc(S(=O)(=O)[O-])c3)C=C2)c2ccccc2S(=O)(=O)[O-])cc1.[Na+].[Na+]` [Acid Blue 9], the solubility in water result was “more than 20 wt. %”.

On to `O=S(=O)([O-])c1ccc(N=Nc2c(O)ccc3ccccc23)cc1.[Na+]` [Acid Orange 7, sodium salt of 4-[(2-hydroxy-1-naphthyl)azo]benzene sulphonate], for which the solubility in water result was “more than 7 g/L”.
